Data taken from patent US12544413B2, “Composition with antibacterial and re-epithelializing action including probiotics” (EOS2021 S.R.L, priority 2019, dated 2026).

Key:
iNOS = test: Nitrite levels assay (Griess) in culture medium of scratched HaCaT monolayers; format: cell-based, human; conditions: AG 20 μM, 15 min pre-treatment, no bacterial extract, 28 hours
Procedure: The scratched monolayers of HaCaT cells were incubated with or without AG at the concentration of 20 μM for 15 minutes before treatment with the bacterial extracts. Nitrite levels in the culture medium were analyzed by Griess reagent after 28 hours. Data shown are expressed as the mean±SEM of three independent experiments conducted in duplicate. The two-way analysis of variance followed by the Bonferroni's post-hoc test was used to assess the presence of statistically significant differences between the data groups: *P<0.05, **P<0.01, ****P<0.0001 with respect to the control (untreated). #P<0.05, ##P<0.01, ###P<0.001, ####P<0.0001 with respect to each corresponding culture without AG. The ability of bacterial extracts to regulate iNOS was further analyzed by measuring the nitrite levels in supernatants of scratched monolayers of HaCaT cells pre-treated with AG, a selective iNOS inhibitor, or not treated with such inhibitor (known from T. P. Misko et al., Eur. J. Pharmacol, 1993, 233:119-125). NO production was indirectly evaluated with the use of the Griess method by measuring nitrite levels using nitrate reductase and the Griess reaction based on a colorimetric assay. […] Absorbance was measured by spectrophotometric reading at 550 nm using a microplate reader (Bio-Rad Hercules, California, USA). […]

[1] = tested on: scratched monolayers of HaCaT cells (human keratinocyte cell line); test: In vitro wound healing model (scratched HaCaT monolayer); format: cell-based; conditions: AG 20 μM, 15 min pre-treatment, no bacterial extract, 20 hours
Procedure: The inventor has evaluated the ability of extracts obtained from selected bacterial strains to influence wound re-epithelialization using an in vitro artificial wound model. The rate of closure of the scratched monolayer in untreated cells and in cells treated with each bacterial extract at the concentration of 50 μg/ml is shown and evaluated through the observation of the repopulation of the area between the wound edges at different time points after the wound generation. In order to quantitatively analyze the effects of the bacterial extracts on the closure of the wound area, images obtained by using an inverted phase contrast microscope at 0, 20, 28 and 45 hours after the scratch were acquired and expressed as a percentage of closure by using an automatical calculation system to evaluate the percentage of area occupied by said cells with respect to the total surface area analyzed. […] The results expressed as percentages of relative re-epithelialization (mean±SEM from three independent experiments conducted in duplicate) as well as the images representing microscopic observations of scratched monolayers are shown in FIGS. 1A and 1B respectively.
The HaCaT cell line of spontaneously immortalized human keratinocytes was purchased from Cell Lines Service GmbH (Eppelheim, Germany). […] Untreated cells were also analysed and used as negative controls. […]

[2] = Clinical course of diabetes ulcers and toe amputation wound in a patient (Example 1); format: in vivo, human; conditions: 500 mg orally every 12 hours, four weeks
Text: The probiotic formulation was a composition comprising Lactobacillus plantarum NCIMB 43029, Lactobacillus acidophilus NCIMB 43030 and the known Streptococcus thermophilus (SEQ ID NO: 10). 0.5 g of composition was applied once daily.
The use of the probiotic formulation was discontinued on day 60, 24 days after treatment.

HaCaT keratinocytes = test: Trypan blue dye exclusion test of HaCaT viability; format: cell-based, human; conditions: 0.1%; positive control; P≤0.01
Procedure: The HaCaT cell line of spontaneously immortalized human keratinocytes was purchased from Cell Lines Service GmbH (Eppelheim, Germany). HaCaT cells were cultured in DMEM supplemented with 10% (v/v) fetal calf serum (FCS), 2 mM L-glutamine, 100 U/ml penicillin and 100 μg/ml streptomycin (Euro Clone, West York, UK). The culture conditions were kept constantly at 37° C. in a humidified atmosphere with 5% CO2. After reaching 80% confluency, cells were seeded, as specified below, in 6- or 12-well plates for sterile cell cultures (Becton Dickinson, San José, CA) at the concentration of 18,000 cells/cm^2. Non-adherent cells were removed by gentle washing in phosphate buffer (PBS, pH=7.4). Cells grown in a 12-well plate were collected at 20, 28 and 45 hours and live cells were counted with the trypan blue dye exclusion test (Euro Clone, West York, UK). […] Untreated cells were also analysed and used as negative controls. The cells were transferred to a Bürker counting chamber and counted under a microscope Eclipse 50i (Nikon Corporation, Japan). For the selection of suitable concentrations of bacterial extract expressed as μg protein/ml, the viability of the HaCaT keratinocytes was analyzed using the trypan blue exclusion test. […]

N=C(N)NN [AG, aminoguanidine]
nitrite production induced by scratching the control monolayer (iNOS): significantly prevented the increase in nitrite production
re-epithelialization (repairing) of the control monolayer [1]: strong effect on the physiological repairing of the control monolayer

CC1(C)S[C@@H]2[C@H](NC(=O)[C@H](N)c3ccc(O)cc3)C(=O)N2[C@H]1C(=O)O [amoxicillin]
clinical picture of the wounds (wound exudate) [2]: worsening clinical picture

Triton X
cell viability (HaCaT keratinocytes): significant reduction
